What was measured:
Format in all cases: cell-based
[1] = tested on: Penicillium funiculosum CECT 2914; experiment: minimum inhibitory concentration; conditions: Fungi
Escherichia coli 0157H7 = experiment: minimum inhibitory concentration; conditions: Gram − Bacteria
Aerobes = experiment: preservative efficacy (Antimicrobial Effectiveness Testing USP 24th Edition) in cosmetic formulations; conditions: 0.20 g of LAE
Description: This assay consists of the contamination of the protecting formulations with an inoculum mixture of 10^8 cfu/mL concentration, for each of the microorganisms, and the determination of the number of viable cells in the time. This inoculum mixture is composed of the following microorganisms:
The cosmetic composition to be analysed is divided into sterile containers with 50 g of product for each flask. Each container is inoculated with 0.5 mL of inoculum (10^8 cfu/mL). The target concentration is 10^6 cfu/mL, approximately. All the containers are kept at a temperature between 20-25° C. and are protected from light.
The level of the microbial contamination is checked at 0 hours, 7 days, 14 days and 28 days. The number of colonies is evaluated by dilution in buffer peptone with the appropriate neutraliser agent of the preservative. The culture media used for counting the microorganisms are: Soya triptone (35-37° C., 48 hours) for the determination of bacteria; Sabouraud agar with chloramphenicol for fungi and yeast (25° C., 3-5 days).
According to Antimicrobial Effectiveness Testing USP 24th Edition, 1999 (pp. 1809-1811), an antimicrobial preservative is considered to be effective in topically used products made with aqueous bases or vehicles, non-sterile nasal products and emulsions, including those applied to mucous membranes, if: • Not less than 2.0 logarithm reduction from the initial calculated bacteria's count is reached at 14 days and no increase from the 14 days' count at 28 days is detected; and • No increase from the initial calculated count of yeast and moulds is observed.

[2] = tested on: Clostridium perfringens ATCC 77454; conditions: Gram + Bacteria
[3] = tested on: Aspergillus niger ATCC 14604; experiment: minimum inhibitory concentration; conditions: Fungi

CCCCCCCCCCCC(=O)N[C@@H](CCCN=C(N)N)C(=O)OCC.Cl [LAE, ethyl ester of the lauramide of the arginine monohydrochloride]
M.I.C. [1]: 16 ppm | M.I.C. (Escherichia coli 0157H7): 20 ppm | viable count With LAE (Aerobes; Example 1, oil-in-water emulsion with non-ionic surfactant, 7 days): 3.1 · 10^3 cfu/mL | viable count With LAE (Aerobes; Example 1, oil-in-water emulsion with non-ionic surfactant, 14 days): 3.3 · 10^2 cfu/mL | viable count With LAE (Aerobes; Example 1, oil-in-water emulsion with non-ionic surfactant, Initial): 1.1 · 10^6 cfu/mL | viable count With LAE (Aerobes; Example 2, oil-in-water emulsion with an ionic emulsifier, 7 days): 1.6 · 10^4 cfu/mL | viable count With LAE (Aerobes; Example 2, oil-in-water emulsion with an ionic emulsifier, 14 days): 6.5 · 10^2 cfu/mL | viable count With LAE (Aerobes; Example 2, oil-in-water emulsion with an ionic emulsifier, Initial): 2.7 · 10^6 cfu/mL | viable count With LAE (Aerobes; Example 3, water in oil emulsion with non-ionic emulsifiers, 7 days): 1.8 · 10^3 cfu/mL | viable count With LAE (Aerobes; Example 3, water in oil emulsion with non-ionic emulsifiers, 14 days): <9.9 · 10^1 cfu/mL | viable count With LAE (Aerobes; Example 3, water in oil emulsion with non-ionic emulsifiers, Initial): 6.2 · 10^6 cfu/mL | viable count With LAE (Aerobes; Example 4, aqueous solution with a surfactants' mixture (bath gels, disodium cocoamfoacetate), 7 days): 5.8 · 10^3 cfu/mL | viable count With LAE (Aerobes; Example 4, aqueous solution with a surfactants' mixture (bath gels, disodium cocoamfoacetate), 14 days): <9.9 · 10^1 cfu/mL | viable count With LAE (Aerobes; Example 4, aqueous solution with a surfactants' mixture (bath gels, disodium cocoamfoacetate), Initial): 3.3 · 10^6 cfu/mL | viable count With LAE (Aerobes; Example 5, aqueous solution with a surfactants' mixture (bath gels, disodium lauryl sulfosuccinate), 7 days): 4.8 · 10^2 cfu/mL | viable count With LAE (Aerobes; Example 5, aqueous solution with a surfactants' mixture (bath gels, disodium lauryl sulfosuccinate), 14 days): 1.3 · 10^2 cfu/mL | viable count With LAE (Aerobes; Example 5, aqueous solution with a surfactants' mixture (bath gels, disodium lauryl sulfosuccinate), Initial): 6.7 · 10^6 cfu/mL | viable count With LAE (Aerobes; Example 6, hydroalcoholic gel (after-shaving lotions), 7 days): 6.9 · 10^3 cfu/mL | viable count With LAE (Aerobes; Example 6, hydroalcoholic gel (after-shaving lotions), 14 days): <9.9 · 10^1 cfu/mL | viable count With LAE (Aerobes; Example 6, hydroalcoholic gel (after-shaving lotions), Initial): 3.7 · 10^6 cfu/mL | viable count With LAE (Aerobes; Example 7, facial tonic, 7 days): 3.6 · 10^3 cfu/mL | viable count With LAE (Aerobes; Example 7, facial tonic, 14 days): 5.9 · 10^2 cfu/mL | viable count With LAE (Aerobes; Example 7, facial tonic, Initial): 2.7 · 10^6 cfu/mL | viable count With LAE (Aerobes; Example 8, mask-up cleaner, 7 days): 3.8 · 10^3 cfu/mL | viable count With LAE (Aerobes; Example 8, mask-up cleaner, 14 days): 6.7 · 10^2 cfu/mL | viable count With LAE (Aerobes; Example 8, mask-up cleaner, Initial): 4.5 · 10^6 cfu/mL | viable count With LAE (Aerobes; Example 9, fluid oil-in-water emulsion with non-ionic surfactants (body oil), 7 days): 7.6 · 10^3 cfu/mL | viable count With LAE (Aerobes; Example 9, fluid oil-in-water emulsion with non-ionic surfactants (body oil), 14 days): <9.9 · 10^1 cfu/mL | viable count With LAE (Aerobes; Example 9, fluid oil-in-water emulsion with non-ionic surfactants (body oil), Initial): 4.5 · 10^6 cfu/mL | viable count With LAE (Aerobes; Example 10, toothpaste formulation, 7 days): 3.3 · 10^3 cfu/mL | viable count With LAE (Aerobes; Example 10, toothpaste formulation, 14 days): 8.0 · 10^2 cfu/mL | viable count With LAE (Aerobes; Example 10, toothpaste formulation, Initial): 4.5 · 10^6 cfu/mL | viable count With LAE (Aerobes; Example 11, aqueous solution with surfactants (shampoos), 7 days): 4.8 · 10^3 cfu/mL | viable count With LAE (Aerobes; Example 11, aqueous solution with surfactants (shampoos), 14 days): 7.0 · 10^2 cfu/mL | viable count With LAE (Aerobes; Example 11, aqueous solution with surfactants (shampoos), Initial): 3.3 · 10^6 cfu/mL | viable count With LAE (Aerobes; Example 12, oil-in-water emulsion with non-ionic surfactants (face cream), 7 days): 3.7 · 10^4 cfu/mL | viable count With LAE (Aerobes; Example 12, oil-in-water emulsion with non-ionic surfactants (face cream), 14 days): 1.9 · 10^3 cfu/mL | viable count With LAE (Aerobes; Example 12, oil-in-water emulsion with non-ionic surfactants (face cream), Initial): 1.1 · 10^6 cfu/mL | viable count With LAE (Aerobes; Example 13, oil-in-water emulsion with non-ionic surfactants (sun protector, polysorbate 60), 7 days): 8.4 · 10^3 cfu/mL | viable count With LAE (Aerobes; Example 13, oil-in-water emulsion with non-ionic surfactants (sun protector, polysorbate 60), 14 days): 7.5 · 10^2 cfu/mL | viable count With LAE (Aerobes; Example 13, oil-in-water emulsion with non-ionic surfactants (sun protector, polysorbate 60), Initial): 3.1 · 10^6 cfu/mL | viable count With LAE (Aerobes; Example 14, oil-in-water emulsion with non-ionic surfactants (sun protector, cetyl dimethicone copolyol), 7 days): 9.4 · 10^2 cfu/mL | viable count With LAE (Aerobes; Example 14, oil-in-water emulsion with non-ionic surfactants (sun protector, cetyl dimethicone copolyol), 14 days): 8.7 · 10^2 cfu/mL | viable count With LAE (Aerobes; Example 14, oil-in-water emulsion with non-ionic surfactants (sun protector, cetyl dimethicone copolyol), Initial): 1.4 · 10^6 cfu/mL | viable count With LAE (Aerobes; Example 15, emulsion for hands care, 7 days): 3.3 · 10^3 cfu/mL | viable count With LAE (Aerobes; Example 15, emulsion for hands care, 14 days): <9.9 · 10^1 cfu/mL | viable count With LAE (Aerobes; Example 15, emulsion for hands care, Initial): 4.4 · 10^6 cfu/mL | M.I.C. [2]: 16 ppm | M.I.C. [3]: 32 ppm

Reference: patent US8388986B2, “Use of cationic surfactants in cosmetic preparations” (priority 2001, dated 2013)
